The subject of assay [1] is Adult male rats. The experiment in a line: Induction of penile erections in rats after intraperitoneal injection, 60 minute observation. The class given is in vivo. As to conditions: IP injection of compound alone, 60 min observation, n=6. The protocol: Adult male rats were housed 2 to 3 per cage and were acclimated to the standard vivarium light cycle (12 hr. light, 12 hr. dark), rat chow and water for a least a week prior to testing. All experiments were performed between 9 a.m. and noon and rats were placed in cylindrical, clear plexiglass chambers during the 60 minute observation period. Mirrors were positioned below the chambers to improve viewing.
Observations began 5 minutes after an intraperitoneal injection of either saline or compound. Two observers counted the number of grooming motions, stretches, yawns and spontaneously occurring penile erections not elicited by genital grooming, and then recorded them as they occurred for a total of 60 minutes. Each observer recorded behaviors of 6 rats at the same time. The observers were unaware of the treatment and animals were tested once, with n=6 in each group. HP-228 was used as a positive control for penile erections.
By comparison, IP injection with agonist TRG 2411 #203 alone (shown below) increased the average number of erections observed to 2.7.

The test system of assay [2] is Adult male Sprague-Dawley rats. Description: Dose-response of HP-228 for inducing erections in rats. It is filed as in vivo. Conditions: rat, IP. The protocol:
This example describes a dose-response correlation for using HP-228 to induce erections in rats.
(§1) Adult male Sprague-Dawley rats weighing 220 to 250 g or adult male C57/BL6 mice (Harlan Laboratories; Indianapolis Ind.) were injected intraperitoneally (IP) with 1 ml/kg body weight HP-228 solution or PBS as a negative control. Concentrations of HP-228 were 0.45, 0.9, 1.8, 3.6 and 7.2 mg/ml/kg (n=4 to 6 animals). The animals were allowed 10 minutes to acclimate to the surroundings before observation. The animals were then observed for 60 minutes for penile erections not induced by grooming. Yawning, stretching, grooming behaviors were also recorded.

In assay [3] the test system is C57/BL6 mice. Description: Dose-response of HP-228 for inducing erections in mice. The class given is in vivo. As to conditions: mouse, IP. The protocol: as §1
This example describes a dose-response correlation for using HP-228 to induce erections in mice (n=3 to 5). Age-matched C57/BL6 mice (Harlan Laboratories; Indianapolis Ind.) weighing 20 to 25 g were injected (100 μl/mouse) intraperitoneally essentially as described above and observed.

The test system of assay [4] is Sprague-Dawley rats. Description: Association of MC-3 with erectile response: HP-228 IP with MC-3-specific antagonist ICV in rats. The class given is in vivo. As to conditions: rat, HP-228 1.8 mg/kg IP, PBS ICV (no MC-3 antagonist), n=5. The protocol: Sprague-Dawley rats (n=5) received 1.8 mg/kg HP-228 or PBS via IP injection. The rats also received via ICV injection a dose of PBS or MC-3-specific antagonist at 10 μg/5 μl. […] After administration, the rats were observed as described above. All rats received an ICV injection followed by an IP injection 5 to 10 minutes later.
In the negative control rats, receiving only PBS, 0.3 erections per hour were observed. In the positive control rats, receiving HP-228 but no MC-3 antagonist, 3.8 erections per hour were observed.

Assay [5] deals with male Sprague-Dawley rats. The experiment in a line: Effect of oxytocin receptor antagonist vasotocin on erectile effects in rats. The class given is in vivo. Conditions: rat. An excerpt: (§2) In both examples, male Sprague-Dawley rats, about 200 to 225 g, were acclimated for 5 days in a reverse light:dark cycle room (dark 10 a.m. to 10 p.m.) before being aseptically ICV cannulated. Rats with indwelling ICV cannulae were housed one per cage. After surgery, 4 days were allowed for recovery and 10 days total were allowed for adaptation to the light cycle. Rats were caged individually after surgery and body weights at the time of treatment averaged 250 g. Otherwise, the procedure is essentially the same as in Example II.
Treatment was between 10 a.m. and 1 p.m. […] Vasotocin (Peninsula Laboratories, San Carlos Calif.) was administered ICV at 100 ng/rat. Oxytocin (Sigma, St. Louis Mo.) was administered ICV at 30 ng/rat (10 μl/rat PBS). Ten minutes later, IP injections of HP-228 or vehicle were given. HP-228 was administered IP at 2 mg/kg in 3 ml/kg PBS. One group of animals received ICV injections of vasotocin and oxytocin ICV injections of 5 μl/rat each at double concentrations for a total of 10 μl injected ICV. In this group, the rats received vasotocin first, followed by oxytocin.

The test system of assay [6] is male Sprague-Dawley rats. The experiment in a line: Effect of dopamine receptor antagonist sulpiride on erectile effects in rats. It is filed as in vivo. As to conditions: rat.
Text: as §2
Treatment was between 9:30 a.m. and noon. Each animal received an initial IP injection of vehicle (3 ml/kg PBS) or sulpiride. Sulpiride (Sigma) was administered IP at 50 mg/kg (6 ml/kg IP). Ten minutes later, the animals received a final IP injection of HP-228 or vehicle or a SC injection of apomorphine. HP-228 was administered IP at 2 mg/kg in 3 ml/kg PBS. Apomorphine (Sigma) was administered SC at 0.1 mg/kg (1 ml/kg sterile water).

Assay [7] relates to Rats. The experiment in a line: HP-228-mediated erectile response with MC-3 antagonist TRG 6601 #15—2 ICV in rats. The class given is in vivo. As to conditions: rat, PBS ICV, HP-228 2 mg/kg/ml IP. As to the method:
Rats were obtained and cannulated essentially as described in Example VII. Rats received a 10 μl injection ICV containing antagonist “TRG 6601 #15—2” or vehicle alone. The compound was administered as a 1 mg/ml solution in 5% EtOH/PBS at a dose of […]. Five minutes later, the rats were injected IP with either PBS (1 ml/kg) or HP-228 (2 mg/kg/ml). The animals were observed as in Example VII. Erections per hour and rate of animals responding are shown: […]

Assay [8] concerns human subjects. As to conditions: pilot phase I clinical studies (Dorr et al. 1996; Wessells et al. 1998); cited from earlier work.
[9] abbreviates: single agent plus PBS: oxytocin 30 ng/rat ICV, HP-228 2 mg/kg IP, vasotocin 100 ng/rat ICV.
Setting [10] is: single agent plus PBS: apomorphine 0.1 mg/kg SC, HP-228 2 mg/kg IP, sulpiride 50 mg/kg IP.

“Ac-Nle-Gln-His-(D)Phe-Arg-(D)Trp-Gly-NH2 [HP-228]”: the “average erections observed per rat per hour” value in assay [1] is reported as 4.8 erections per rat per hour. Further, the avg. erections observed/hour in assay [2] (0.45 mg/ml/kg HP-228, 60 min observation) came to 2.80 erections/hour; in assay [2] (0.9 mg/ml/kg HP-228, 60 min observation) it was 2.60 erections/hour; in assay [2] (1.8 mg/ml/kg HP-228, 60 min observation), 3.67 erections/hour; in assay [2] (3.6 mg/ml/kg HP-228, 60 min observation), 7.00 erections/hour; in assay [2] (7.2 mg/ml/kg HP-228, 60 min observation), 5.75 erections/hour; in assay [3] (25 μg/mouse HP-228), 3.00 erections/hour. Besides, the avg. erections observed/hour in assay [3] (50 μg/mouse HP-228) is recorded as 6.67 erections/hour; in assay [3] (100 μg/mouse HP-228) it was 5.33 erections/hour; in assay [3] (250 μg/mouse HP-228), 3.00 erections/hour. Further, the erections per hour is 3.8 erections per hour in assay [4], 4.9 erections per hour in assay [5] (setting [9]), 7.3 erections per hour in assay [6] (setting [10]) and 4.7 erections per hour in assay [7]. Moreover, the “response rate, % of animals” value in assay [5] (oxytocin and HP-228 groups) is 88%-100%; in assay [6] (apomorphine and HP-228 groups), 100%. Besides, the “responder rate of animals (rats responding out of rats)” value in assay [5] (setting [9]) is on record as 7/8. Besides, the “rate of animals responding” value in assay [6] (setting [10]) is reported as 5/5; in assay [7], 6/6.
Consider MELANOTAN-II, for which, in assay [8], the “penile erections in human subjects” value is “cause penile erections”.

The values above are taken from patent US6534503B1, “Melanocortin receptor-3 ligands to treat sexual dysfunction” (Lion Bioscience AG, priority 1998, dated 2003).
